From patent publication US7314861B2, “Melanin-concentrating hormone analogs” (priority 2001, dated 2008)
Where a SMILES comes first, the peptide text is derived from it. Bridges are numbered along the chain shown (N, C = ends).

What was measured:
human MCH-1R = human MCH-1R (Homo sapiens, UniProt Q99705); assay: Aequorin bioluminescence functional assay, MCH-1R; settings: for MCH-1R Activation %: % Activation at 10 μM, aequorin functional assay
Experimental: (§1) The aequorin bioluminescence assay can be used to measure the activity of G protein-coupled receptors that couple through the Gα protein subunit family consisting of Gq and G11. Such coupling leads to phospholipase C activation, intracellular calcium mobilization and protein kinase C activation.
(§2) Following approximately 40 hours of expression the apo-aequorin in the cells was charged for 4 hours with coelenterazine (10 μM) under reducing conditions (300 μM reduced glutathione) in ECB buffer (140 mM NaCl, 20 mM KCl, 20 mM HEPES-NaOH [pH=7.4], 5 mM glucose, 1 mM MgCl2, 1 mM CaCl2, 0.1 mg/ml bovine serum albumin).
(§3) The cells were harvested, washed once in ECB medium and resuspended to 500,000 cells/ml. 100 μl of cell suspension (corresponding to 5×10^4 cells) was then injected into the test plate containing MCH or MCH analogs, and the integrated light emission was recorded over 30 seconds, in 0.5 second units. 20 μL of lysis buffer (0.1% final Triton X-100 concentration) was then injected and the integrated light emission recorded over 10 seconds, in 0.5 second units. The “fractional response” values for each well were calculated by taking the ratio of the integrated response to the initial challenge to the total integrated luminescence including the Triton X-100 lysis response.

human MCH-R2 = human MCH-R2 (Homo sapiens, UniProt Q969V1); assay: Aequorin bioluminescence functional assay, MCH-2R; settings: for MCH-2R Activation %: % Activation at 10 μM; for MCH-2R Activation % / EC50: aequorin functional assay; for EC50: MCH-2R EC50 (nM), 293-AEQ17 cells; for selective activity at MCH-2R over MCH-1R: greater binding and/or activation at MCH-2R than at MCH-1R
Sequence of human MCH-R2 (Q969V1 whole entry): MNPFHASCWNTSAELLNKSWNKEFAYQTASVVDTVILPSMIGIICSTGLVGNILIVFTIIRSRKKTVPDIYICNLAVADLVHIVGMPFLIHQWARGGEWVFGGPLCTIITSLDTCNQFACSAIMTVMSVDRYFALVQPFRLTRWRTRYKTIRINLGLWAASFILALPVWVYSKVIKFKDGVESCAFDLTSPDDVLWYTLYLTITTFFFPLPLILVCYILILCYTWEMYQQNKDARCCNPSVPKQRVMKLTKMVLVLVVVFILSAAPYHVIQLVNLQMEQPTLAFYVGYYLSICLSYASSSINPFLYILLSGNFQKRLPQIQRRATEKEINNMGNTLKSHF
Experimental: as §1, §2, §3

human MCH-2R = human MCH-2R (Homo sapiens, UniProt Q969V1); assay: Radiolabeled MCH-R binding assay (SPA based), MCH-2R; settings: MCH-2R IC50 (nM)
Sequence of human MCH-2R (Q969V1 whole entry): as above
Experimental: Cell membranes were prepared on ice. Each T-75 flask was rinsed twice with 10 ml of Enzyme-free Cell Dissociation Buffer (Specialty Media, Lavallette, N.J.), and the cell monolayer was detached in an additional 10 ml of Enzyme-free Cell Dissociation Buffer by incubation at room temperature for 10 minutes. Dissociated cells were centrifuged (500×g for 10 minutes at 4° C.), resuspended in 5 ml homogenization buffer (10 mM Tris-HCl, pH 7.4, 0.01 mM Pefabloc, 10 μM phosphoramidon, 40 μg/ml bacitracin) and then homogenized using a glass homogenizer (10-15 strokes). The homogenate was centrifuged for 10 minutes (1,000×g at 4° C.). The resulting supernatant was then centrifuged at 38,700×g for 15 minutes at 4° C. Pelleted membranes were resuspended (passed through 25 gauge needle 5 times), snap-frozen on liquid nitrogen, and stored at −80° C. until use.
For the SPA-based assay, WGA-PVT beads (NEN Life Sciences Products) were resuspended in Dulbecco's PBS with calcium and magnesium (500 mg beads in 4 ml PBS). […] The suspension was mixed gently for 20 minutes, 12.3 ml of assay buffer and protease inhibitors were added (final concentration given): 2 μg/ml leupeptin, 10 μM phosphoramidon, 40 μg/ml bacitracin, 5 μg/ml aprotinin, 0.1 mM Pefabloc.
Coated beads were kept on ice until use. […] Binding reactions were allowed to proceed at room temperature for 3 hours. Quantitation was performed by scintillation counting (TopCount device).

[1] = Table 1, inhibition of [125I]-human MCH (Phe13, Tyr19) binding

Sequence of human MCH-1R (Q99705 whole entry): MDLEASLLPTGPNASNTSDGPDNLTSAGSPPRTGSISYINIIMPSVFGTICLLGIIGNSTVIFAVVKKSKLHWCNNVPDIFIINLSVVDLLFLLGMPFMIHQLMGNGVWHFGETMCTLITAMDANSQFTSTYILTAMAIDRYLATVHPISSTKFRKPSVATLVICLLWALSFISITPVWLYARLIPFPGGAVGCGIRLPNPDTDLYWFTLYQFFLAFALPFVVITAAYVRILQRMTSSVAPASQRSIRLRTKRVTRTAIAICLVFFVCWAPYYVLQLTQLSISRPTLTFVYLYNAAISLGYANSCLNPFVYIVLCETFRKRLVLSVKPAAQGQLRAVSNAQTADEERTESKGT

Structure (SMILES): CSCC[C@@H]1NC(=O)[C@@H](NC(=O)[C@H](CCCNC(=N)N)NC(=O)[C@H](CC(C)C)NC(=O)[C@H](CCSC)NC(=O)[C@H](CC(=O)O)NC(=O)[C@H](Cc2ccccc2)NC(=O)[C@@H](N)CC(=O)O)CSSC[C@@H](C(=O)N[C@@H](Cc2c[nH]c3ccccc23)C(=O)N[C@@H](CCC(N)=O)C(=O)N[C@H](C(=O)O)C(C)C)NC(=O)[C@H](C)NC(=O)[C@H](CCCNC(=N)N)NC(=O)[C@H](Cc2ccc(O)cc2)NC(=O)[C@H](C(C)C)NC(=O)[C@H](CCCNC(=N)N)NC(=O)CNC(=O)[C@H](CC(C)C)NC1=O [compound 53] (H-DFDMLRCMLGRVYRACWQV-OH; disulfide 7-16; N-terminus and C-terminus assumed)
- MCH-1R Activation % (human MCH-1R; Table 3): 99%
- MCH-2R Activation % (human MCH-R2; Table 3): 96%
- IC50 (human MCH-2R; Table 3): 19 nM

Structure (SMILES): CSCC[C@@H]1NC(=O)[C@@H](NC(=O)[C@H](CCCNC(=N)N)NC(=O)[C@H](CC(C)C)NC(=O)[C@H](CCSC)NC(=O)[C@H](CC(=O)O)NC(=O)[C@H](Cc2ccccc2)NC(=O)[C@@H](N)CC(=O)O)CSSC[C@@H](C(=O)N[C@@H](Cc2c[nH]c3ccccc23)C(=O)N[C@@H](C)C(=O)N[C@H](C(=O)O)C(C)C)NC(=O)[C@@H]2CCCN2C(=O)[C@H](CCCNC(=N)N)NC(=O)[C@H](Cc2ccc(O)cc2)NC(=O)[C@H](C(C)C)NC(=O)[C@H](CCCNC(=N)N)NC(=O)CNC(=O)[C@H](CC(C)C)NC1=O [compound 55] (H-DFDMLRCMLGRVYRPCWAV-OH; disulfide 7-16; N-terminus and C-terminus assumed)
- MCH-1R Activation % (human MCH-1R; Table 3): 99%
- MCH-2R Activation % (human MCH-R2; Table 3): 97%
- IC50 (human MCH-2R; Table 3): 9.5 nM

Structure (SMILES): CSCC[C@@H]1NC(=O)[C@@H](NC(=O)[C@H](CCCNC(=N)N)NC(=O)[C@H](CC(C)C)NC(=O)[C@H](CCSC)NC(=O)[C@H](CC(=O)O)NC(=O)[C@H](Cc2ccccc2)NC(=O)[C@@H](N)CC(=O)O)CSSC[C@@H](C(=O)N[C@@H](Cc2c[nH]c3ccccc23)C(=O)N[C@@H](CCC(N)=O)C(=O)N[C@H](C(=O)O)C(C)C)NC(=O)[C@@H]2CCCN2C(=O)[C@H](CCCNC(=N)N)NC(=O)[C@H](Cc2ccc(O)cc2)NC(=O)[C@H](C(C)C)NC(=O)[C@H](CCCNC(=N)N)NC(=O)CNC(=O)[C@H](CC(C)C)NC1=O [compound 1]
- MCH-1R Activation % (human MCH-1R; Table 2): 100%
- MCH-1R Activation % (human MCH-1R; Table 3): 100%
- EC50 (human MCH-R2; Table 1): 30.7 nM
- MCH-2R Activation % (human MCH-R2; Table 2): 100%
- MCH-2R Activation % (human MCH-R2; Table 3): 100%
- IC50 (human MCH-2R; [1]): 0.5 nM
- IC50 (human MCH-2R; Table 2): 0.5 nM
- IC50 (human MCH-2R; Table 3): 0.9 nM

Structure (SMILES): CSCC[C@@H]1NC(=O)[C@@H](NC(=O)[C@H](CCCNC(=N)N)NC(C)=O)CSSC[C@@H](C(N)=O)NC(=O)[C@@H]2CCCN2C(=O)[C@H](CCCNC(=N)N)NC(=O)[C@H](Cc2ccc(O)cc2)NC(=O)[C@H](C(C)C)NC(=O)[C@H](CCCNC(=N)N)NC(=O)[C@@H](CC(N)=O)NC(=O)[C@H](CC(C)C)NC1=O [compound 18]
- MCH-1R Activation % (human MCH-1R; Table 1): 39%
- EC50 (human MCH-R2; Table 1): 24 nM
- MCH-2R Activation % (human MCH-R2; Table 1): 106%
- selective activity at MCH-2R over MCH-1R (human MCH-R2): selectively active
- IC50 (human MCH-2R; [1]): 2.3 nM

Structure (SMILES): CSCC[C@@H]1NC(=O)[C@@H](NC(=O)[C@H](CCCNC(=N)N)NC(C)=O)CSSC[C@@H](C(N)=O)NC(=O)[C@@H]2CCCN2C(=O)[C@H](CCCNC(=N)N)NC(=O)[C@H](Cc2ccccc2)NC(=O)[C@H](C(C)C)NC(=O)[C@H](CCCNC(=N)N)NC(=O)CNC(=O)[C@H](CC(C)C)NC1=O [compound 27]
- MCH-1R Activation % (human MCH-1R; Table 1): 96%
- EC50 (human MCH-R2; Table 1): 12 nM
- MCH-2R Activation % (human MCH-R2; Table 1): 94%
- IC50 (human MCH-2R; [1]): 1.5 nM

Structure (SMILES): CCCC[C@@H]1NC(=O)CNC(=O)[C@H](CC(C)C)NC(=O)[C@H](CCSC)NC(=O)[C@@H](NC(=O)[C@H](CCCNC(=N)N)NC(C)=O)CSSC[C@@H](C(N)=O)NC(=O)[C@@H]2CCCN2C(=O)[C@H](CCCNC(=N)N)NC(=O)[C@H](Cc2ccc(O)cc2)NC(=O)[C@H](C(C)C)NC1=O [compound 26]
- EC50 (human MCH-1R): > 1000 nM
- MCH-2R Activation % (human MCH-R2; Table 1): 34%
- selective activity at MCH-2R over MCH-1R (human MCH-R2): selectively active
- IC50 (human MCH-2R; [1]): 9 nM
